Assay results taken from patent US20100311714A1, “1H-IMIDAZO[4,5-c]QUINOLINONE COMPOUNDS” (priority 2009, published 2010).

Legend:
PI3K delta = target: T1, PI3K delta (Homo sapiens, UniProt O00329); assay: PI3K delta kinase assay (Kinase-Glo luminescence); type: biochemical; conditions: read-out: EPK_PI3Kdelta/IC50
T1 construct: for the full-length p110-d subunit are generated and fused by overlapping PCR; His tag (C); made in house; host or cells: baculovirus BV1060; Tn5 (Trichoplusia ni) or TiniPro insect cells
Description: (§1) In a more preferred assay, the kinase reaction is performed in a final volume of 10 μL per well of a low volume non binding CORNING, 384 well black plate (Cat. No. #3676). The final concentrations of ATP and phosphatidyl inositol (PI) in the assay are 1 μM and 10 μg/mL respectively. The reaction is started by the addition of ATP.
(§2) The components of the assay are added per well as follows:
(§3) 50 nL test compounds in 90% DMSO per well, in columns 1-20, 8 concentrations (⅓ and 1/3.33 serial dilution step) in single. • Low control: […] of 90% DMSO in half the wells of columns 23-24 (0.45% in final). • High control: 50 nL of reference compound (e.g. compound of Example 7 in WO 2006/122806) in the other half of columns 23-24 (2.5 μM in final). • Standard: 50 nL of reference compound as just mentioned diluted as the test compounds in columns 21-22 • 20 mL ‘buffer’ are prepared per assay: • 200 μL of 1M TRIS HCl pH7.5 (10 mM in final) • 60 μL of 1M MgCl2 (3 mM in final) • 500 μL of 2M NaCl (50 mM in final) • 100 μL of 10% CHAPS (0.05% in final) • 200 μL of 100 mM DTT (1 mM in final) • 18.94 mL of nanopure water • 10 mL ‘PI’ are prepared per assay: • 200 μL of 1 mg/ml L-alpha-Phosphatidylinositol (Liver Bovine, Avanti Polar Lipids Cat. No. 840042C MW=909.12) prepared in 3% OctylGlucoside (10 μg/ml in final) • 9.8 mL of ‘buffer’ • 10 mL ‘ATP’ are prepared per assay: • 6.7 μL of 3 mM stock of ATP giving a final concentration of 1 μM per well • 10 mL of ‘buffer’ • 2.5 mL of each PI3K construct are prepared per assay in ‘PI’ with the following final concentration: • 10 nM PI3K alfa EMV B1075 • 25 nM beta EMV BV949 • 10 nM delta EMV BV1060 • 150 nM gamma EMV BV950 • 5 μL of ‘PI/PI3K’ are added per well. • 5 μl ‘ATP’ are added per well to start the reaction. • The plates are then incubated at room temperature for 60 minutes (alfa, beta, delta) or 120 minutes (gamma). • The reaction is terminated by the addition of 10 μL Kinase-Glo (Promega Cat. No. #6714). • The assay plates are read after 10 minutes in Synergy 2 reader (BioTek, Vermont USA) with an integration time of 100 milliseconds and sensitivity set to 191. • Output: The High control is around 60′000 counts and the Low control is 30′000 or lower • This luminescence assay gives a useful Z′ ratio between 0.4 and 0.7
PI3Kδ BV-1060 p85(iSH2)-Gly Linker-p110d(Full-Length)-C-Term His Tag
PI3K delta is purified in three chromatographic steps: immobilized metal affinity chromatography on a Ni Sepharose resin (GE Healthcare), gel filtration utilizing a Superdex 200 26/60 column (GE Healthcare), and finally a anion exchange step on a Q-HP column (GE Healthcare). All buffers are chilled to 4° C. and lysis is performed chilled on ice. Column fractionation is performed rapidly at room temperature. Typically frozen insect cells are lysed in a hypertonic lysis buffer and applied to a prepared IMAC column. The resin is washed with 3-5 column volumes of lysis buffer, followed by 3-5 column volumes wash buffer containing 45 mM imidazole, and the target protein is then eluted with a buffer containing 250 mM imidazole. Fractions are analyzed by Coomassie stained SDS-PAGE gels, and fractions containing the target protein are pooled and applied to a prepared GFC column. Fractions from the GFC column are analyzed by Coomassie stained SDS-PAGE gels, and fractions containing the target protein are pooled. The pool from the GFC column is diluted into a low salt buffer and applied to a prepared Q-HP column. The column is washed with low salt buffer until a stable A280 baseline absorbance is achieved, and eluted using a 20 column volume gradient from 0 mM NaCl to 500 mM NaCl. Again, fractions from the Q-HP column are analyzed by Coomassie stained SDS-PAGE gels, and fractions containing the target protein are pooled. The final pool is dialyzed into a storage buffer containing 50% glycerol and stored at −20° C. The final pool is assayed for activity in the phosphoinostitol kinase assay. […]

mTOR = target: T2, mTOR (Homo sapiens, UniProt P42345); assay: Biochemical assay for m-TOR by TR-FRET; conditions: read-out: EPK_mTOR/IC50
T2 construct: purchased Invitrogen Corporation (Carlsbad/Calif., USA) PV4753
Description: Biochemical Assay for m-TOR by TR-FRET.
Assay components are purchased from Invitrogen Corporation (Carlsbad/Calif., USA): GFP-4EBP1 (Cat. No. PV4759), Tb3+-α-p4EBP1 [pThr46] Antibody (Cat. No. PV4757), proprietary TR-FRET dilution buffer (Cat. No. PV3574), mTOR protein (Cat. No. PV4753).
50 nL of compound dilutions (final concentration of 10, 3.0, 1.0, 0.3, 0.1, 0.03, 0.01 and 0.003 μM) are dispensed onto black 384-well low volume non-binding polystyrene (Cat. No. NBS#3676, Corning, Lowell/Mass., USA). Then 5 μL of ATP (8 μM final concentration) and GFP-4EBP1 (400 nM final concentration) with 5 μL mTOR proteins (0.5 nM final concentration) are incubated at rt. The standard reaction buffer for the TR-FRET mTOR assay contained 50 mM HEPES pH 7.5, 10 mM MnCl2, 50 mM NaCl, 1 mM EGTA, 1 mM DTT. Reactions were stopped with 10 μL of a mixture of EDTA containing the Tb3+-α-p4EBP1[pT46] detection Ab (0.5 nM) in TR-FRET dilution buffer (proprietary to IVG). Plates are read 15 mins later in a Synergy2 reader using an integration time of 0.2 seconds and a delay of 0.1 seconds. Control for the 100% inhibition of the kinase reaction is performed by replacing the mTOR kinase by the standard reaction buffer. The control for the 0% inhibition is given by the solvent vehicle of the compounds (90% DMSO in H2O). A standard compound is used as a reference compound and included in all assay plates in the form of 16 dilution points in duplicate.

PI3K alfa = target: T3, PI3K alfa (Homo sapiens, UniProt P42336); assay: PI3K alpha kinase assay (Kinase-Glo luminescence); type: biochemical; conditions: read-out: EPK_PI3Kalfa/IC50
T3 construct: His tag (C); made in house; host or cells: baculovirus BV1075; Tn5 (Trichoplusia ni) or TiniPro insect cells
Description: as §1, §2, §3
Two different constructs, BV 1052 and BV 1075, are used to generate the PI3 Kinase α proteins for compound screening.
PI3K alpha is purified in three chromatographic steps: immobilized metal affinity chromatography on a Ni Sepharose resin (GE Healthcare, belonging to General Electric Company, Fairfield, Conn., USA), gel filtration utilizing a Superdex 200 26/60 column (GE Healthcare), and finally a cation exchange step on a SP-XL column (GE Healthcare). All buffers are chilled to 4° C. and lysis is performed chilled on ice. Column fractionation is performed rapidly at room temperature.
(§4) IC50 is determined by a four parameter curve fitting routine that comes along with “excel fit”. A 4 Parameter logistic equation is used to calculate IC50 values (IDBS XLfit) of the percentage inhibition of each compound at 8 concentrations (usually 10, 3.0, 1.0, 0.3, 0.1, 0.030, 0.010 and 0.003 μM). Alternatively, IC50 values are calculated using idbsXLfit model 204, which is a 4 parameter logistic model.

PI3K beta = target: T4, PI3K beta (Homo sapiens, UniProt P42338); assay: PI3K beta kinase assay (Kinase-Glo luminescence); type: biochemical; conditions: read-out: EPK_PI3Kbeta/IC50
T4 construct: for the full-length p110-b subunit are generated and fused by overlapping PCR; His tag (C); made in house; host or cells: baculovirus BV949; Tn5 (Trichoplusia ni) or TiniPro insect cells
Description: as §1, §2, §3
PI3Kβ BV-949 p85(iSH2)-Gly linker-r 110b(full-length)-C-term His Tag
PI3K beta is purified in two chromatographic steps: immobilized metal affinity chromatography (IMAC) on a Ni Sepharose resin (GE Healthcare) and gel filtration (GFC) utilizing a Superdex 200 26/60 column (GE Healthcare). All buffers are chilled to 4° C. and lysis is performed chilled on ice. Column fractionation is performed rapidly at room temperature.
as §4

T2 sequence (P42345 1360-2549 limits assumed): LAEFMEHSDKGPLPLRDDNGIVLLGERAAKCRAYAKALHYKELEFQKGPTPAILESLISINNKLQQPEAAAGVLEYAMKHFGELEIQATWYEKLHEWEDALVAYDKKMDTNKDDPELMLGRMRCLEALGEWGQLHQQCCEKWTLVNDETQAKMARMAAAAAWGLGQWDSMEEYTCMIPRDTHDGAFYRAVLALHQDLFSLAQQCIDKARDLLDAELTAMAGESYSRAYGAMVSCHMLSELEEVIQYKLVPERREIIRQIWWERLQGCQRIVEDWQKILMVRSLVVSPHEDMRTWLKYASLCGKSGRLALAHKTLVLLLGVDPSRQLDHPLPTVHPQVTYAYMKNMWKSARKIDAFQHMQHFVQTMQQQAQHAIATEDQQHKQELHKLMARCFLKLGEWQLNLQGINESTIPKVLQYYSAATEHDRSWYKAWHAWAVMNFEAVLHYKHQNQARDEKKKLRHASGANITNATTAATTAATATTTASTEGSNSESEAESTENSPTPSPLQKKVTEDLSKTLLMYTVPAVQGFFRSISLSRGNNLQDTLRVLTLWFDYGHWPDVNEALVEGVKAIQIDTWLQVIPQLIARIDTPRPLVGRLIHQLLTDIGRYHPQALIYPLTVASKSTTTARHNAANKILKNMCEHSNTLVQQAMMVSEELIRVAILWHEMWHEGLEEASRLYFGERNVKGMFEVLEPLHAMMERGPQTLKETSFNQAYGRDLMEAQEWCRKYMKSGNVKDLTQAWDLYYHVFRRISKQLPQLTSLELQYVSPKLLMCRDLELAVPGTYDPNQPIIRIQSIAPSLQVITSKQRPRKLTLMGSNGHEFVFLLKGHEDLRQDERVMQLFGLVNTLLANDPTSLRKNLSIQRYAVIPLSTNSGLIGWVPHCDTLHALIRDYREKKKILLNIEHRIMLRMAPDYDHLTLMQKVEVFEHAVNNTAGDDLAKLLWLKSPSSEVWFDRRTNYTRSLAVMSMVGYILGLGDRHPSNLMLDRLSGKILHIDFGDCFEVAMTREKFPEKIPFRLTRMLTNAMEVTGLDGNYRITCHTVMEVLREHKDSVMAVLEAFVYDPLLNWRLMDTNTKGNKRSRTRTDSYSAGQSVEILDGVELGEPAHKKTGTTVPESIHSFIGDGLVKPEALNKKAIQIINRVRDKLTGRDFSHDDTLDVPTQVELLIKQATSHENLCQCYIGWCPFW
T3 sequence (P42336 with tags, fused parts or gaps limits assumed): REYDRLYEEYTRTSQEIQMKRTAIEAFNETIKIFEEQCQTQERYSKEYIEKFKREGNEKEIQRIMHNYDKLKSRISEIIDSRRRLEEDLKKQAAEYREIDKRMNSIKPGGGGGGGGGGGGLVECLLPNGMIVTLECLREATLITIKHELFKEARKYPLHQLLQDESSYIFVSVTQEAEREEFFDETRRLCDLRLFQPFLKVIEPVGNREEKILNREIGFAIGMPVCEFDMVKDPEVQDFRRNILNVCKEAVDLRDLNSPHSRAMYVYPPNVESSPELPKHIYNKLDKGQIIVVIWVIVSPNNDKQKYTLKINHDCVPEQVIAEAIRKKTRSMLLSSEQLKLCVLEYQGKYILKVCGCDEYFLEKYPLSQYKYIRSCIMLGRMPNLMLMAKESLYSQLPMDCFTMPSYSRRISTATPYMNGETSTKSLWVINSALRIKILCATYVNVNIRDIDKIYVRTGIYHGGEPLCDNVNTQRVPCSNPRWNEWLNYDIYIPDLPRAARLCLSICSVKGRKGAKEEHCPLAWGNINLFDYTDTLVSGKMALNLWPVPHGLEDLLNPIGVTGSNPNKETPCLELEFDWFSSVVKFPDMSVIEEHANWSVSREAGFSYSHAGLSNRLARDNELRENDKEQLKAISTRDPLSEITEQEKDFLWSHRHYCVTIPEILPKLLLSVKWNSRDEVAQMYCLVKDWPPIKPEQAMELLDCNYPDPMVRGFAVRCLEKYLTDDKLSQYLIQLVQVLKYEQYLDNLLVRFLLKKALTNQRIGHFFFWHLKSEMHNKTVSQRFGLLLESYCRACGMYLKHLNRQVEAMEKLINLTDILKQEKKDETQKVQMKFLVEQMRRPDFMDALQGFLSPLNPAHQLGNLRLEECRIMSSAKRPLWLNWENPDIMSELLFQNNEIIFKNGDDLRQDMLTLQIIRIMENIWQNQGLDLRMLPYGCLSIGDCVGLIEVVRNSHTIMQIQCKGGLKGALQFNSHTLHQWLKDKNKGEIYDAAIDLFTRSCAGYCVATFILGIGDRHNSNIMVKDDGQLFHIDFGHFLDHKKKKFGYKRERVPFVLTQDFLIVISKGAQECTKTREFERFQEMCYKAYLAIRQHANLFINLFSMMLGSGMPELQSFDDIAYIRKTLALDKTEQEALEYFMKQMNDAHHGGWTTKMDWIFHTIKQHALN
T4 sequence (P42338 with tags, fused parts or gaps limits assumed): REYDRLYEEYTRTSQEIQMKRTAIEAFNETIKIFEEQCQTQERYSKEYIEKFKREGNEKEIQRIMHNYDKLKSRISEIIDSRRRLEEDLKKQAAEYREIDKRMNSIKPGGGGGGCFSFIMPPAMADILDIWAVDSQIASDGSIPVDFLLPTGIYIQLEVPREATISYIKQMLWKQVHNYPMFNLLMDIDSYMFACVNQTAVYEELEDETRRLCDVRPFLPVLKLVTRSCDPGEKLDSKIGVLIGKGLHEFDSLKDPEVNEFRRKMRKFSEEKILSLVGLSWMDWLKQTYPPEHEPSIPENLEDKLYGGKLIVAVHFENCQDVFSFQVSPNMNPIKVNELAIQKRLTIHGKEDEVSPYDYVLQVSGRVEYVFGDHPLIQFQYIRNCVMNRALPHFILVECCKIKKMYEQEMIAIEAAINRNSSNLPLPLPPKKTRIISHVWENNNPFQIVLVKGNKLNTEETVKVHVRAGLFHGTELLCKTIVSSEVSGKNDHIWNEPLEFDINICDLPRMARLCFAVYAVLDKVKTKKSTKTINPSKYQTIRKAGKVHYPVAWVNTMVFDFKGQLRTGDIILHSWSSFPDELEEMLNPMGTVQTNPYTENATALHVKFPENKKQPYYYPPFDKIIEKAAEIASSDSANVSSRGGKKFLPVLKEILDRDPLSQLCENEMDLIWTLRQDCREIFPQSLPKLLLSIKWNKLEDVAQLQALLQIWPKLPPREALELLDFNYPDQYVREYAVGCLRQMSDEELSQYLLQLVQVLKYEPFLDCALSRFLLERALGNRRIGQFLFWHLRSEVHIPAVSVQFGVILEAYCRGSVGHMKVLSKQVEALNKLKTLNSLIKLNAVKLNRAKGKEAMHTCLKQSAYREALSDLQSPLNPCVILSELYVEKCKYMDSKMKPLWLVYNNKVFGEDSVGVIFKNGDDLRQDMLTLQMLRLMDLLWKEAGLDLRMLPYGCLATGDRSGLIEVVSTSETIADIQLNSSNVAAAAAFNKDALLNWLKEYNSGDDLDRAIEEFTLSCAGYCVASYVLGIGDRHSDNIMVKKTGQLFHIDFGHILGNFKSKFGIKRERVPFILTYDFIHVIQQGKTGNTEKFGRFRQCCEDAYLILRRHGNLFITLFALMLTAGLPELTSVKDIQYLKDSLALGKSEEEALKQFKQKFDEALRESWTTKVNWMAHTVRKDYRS
T1 sequence (O00329 with tags, fused parts or gaps limits assumed): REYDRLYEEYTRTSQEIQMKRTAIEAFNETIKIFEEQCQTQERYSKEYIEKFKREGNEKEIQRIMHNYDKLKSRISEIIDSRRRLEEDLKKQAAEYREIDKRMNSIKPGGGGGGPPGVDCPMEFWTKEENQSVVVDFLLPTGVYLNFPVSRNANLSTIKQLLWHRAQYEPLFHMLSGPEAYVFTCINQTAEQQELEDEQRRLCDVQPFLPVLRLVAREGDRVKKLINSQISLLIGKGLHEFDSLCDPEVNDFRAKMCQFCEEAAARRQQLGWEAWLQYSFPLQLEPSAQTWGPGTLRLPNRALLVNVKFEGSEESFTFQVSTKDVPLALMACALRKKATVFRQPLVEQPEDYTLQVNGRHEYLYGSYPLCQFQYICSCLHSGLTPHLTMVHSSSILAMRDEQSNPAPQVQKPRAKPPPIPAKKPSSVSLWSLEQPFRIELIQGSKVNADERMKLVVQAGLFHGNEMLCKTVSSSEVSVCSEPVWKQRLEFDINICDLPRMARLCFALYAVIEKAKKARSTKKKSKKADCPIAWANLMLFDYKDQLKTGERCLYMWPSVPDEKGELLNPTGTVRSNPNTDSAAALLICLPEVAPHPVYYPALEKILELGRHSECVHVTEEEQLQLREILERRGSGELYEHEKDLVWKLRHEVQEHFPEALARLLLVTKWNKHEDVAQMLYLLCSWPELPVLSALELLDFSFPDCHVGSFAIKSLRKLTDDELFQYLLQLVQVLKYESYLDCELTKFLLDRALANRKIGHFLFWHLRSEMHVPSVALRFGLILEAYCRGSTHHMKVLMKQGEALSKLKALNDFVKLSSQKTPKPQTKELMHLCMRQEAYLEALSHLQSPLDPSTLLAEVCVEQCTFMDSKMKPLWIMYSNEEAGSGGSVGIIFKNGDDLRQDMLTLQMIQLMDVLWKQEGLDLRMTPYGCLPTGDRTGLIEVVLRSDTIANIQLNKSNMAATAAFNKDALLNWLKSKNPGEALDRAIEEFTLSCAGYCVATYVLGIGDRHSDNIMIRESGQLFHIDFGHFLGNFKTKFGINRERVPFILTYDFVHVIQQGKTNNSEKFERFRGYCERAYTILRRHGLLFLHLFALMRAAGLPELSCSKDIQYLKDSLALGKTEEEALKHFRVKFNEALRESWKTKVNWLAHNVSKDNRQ

| Compound | IC50 (PI3K delta) | IC50 (mTOR) | IC50 (PI3K alfa) | IC50 (PI3K beta) |
| --- | --- | --- | --- | --- |
| COc1cc(-c2ccc3ncc4c(c3c2)n(-c2ccc(N3CC(F)(F)C(F)(F)C3)nc2C)c(=O)n4C)cnc1CO [Example 35.3, 8-(6-Hydroxymethyl-5-methoxy-pyridin-3-yl)-3-methyl-1-[2-methyl-6-(3,3,4,4-tetrafluoro-pyrrolidin-1-yl)-pyridin-3-yl]-1,3-dihydro-imidazo[4,5-c]quinolin-2-one] | 10 nM | 175 nM | 14 nM | 48.7 nM |
| CCNc1ncc(-c2ccc3ncc4c(c3c2)n(-c2ccc(N3CC(O)C3)nc2C)c(=O)n4C)cn1 [Example 29.7, 8-(2-Ethylamino-pyrimidin-5-yl)-1-[6-(3-hydroxy-azetidin-1-yl)-2-methyl-pyridin-3-yl]-3-methyl-1,3-dihydro-imidazo[4,5-c]quinolin-2-one] | 24 nM | 8 nM | 49 nM | 339 nM |
| CCNc1ncc(-c2ccc3ncc4c(c3c2)n(-c2ccc(N3CC[C@@H](O)C3)nc2C)c(=O)n4C)cn1 [Example 34.3, 8-(2-Ethylamino-pyrimidin-5-yl)-1-[6-((R)-3-hydroxy-pyrrolidin-1-yl)-2-methyl-pyridin-3-yl]-3-methyl-1,3-dihydro-imidazo[4,5-c]quinolin-2-one] | 18 nM | 11 nM | 45 nM | 416 nM |
| Cc1nc(C(F)(F)F)ccc1-n1c(=O)n(C)c2cnc3ccc(-c4cnc(N)c(CO)c4)cc3c21 [Example 33.5, 8-(6-Amino-5-hydroxymethyl-pyridin-3-yl)-3-methyl-1-(2-methyl-6-trifluoromethyl-pyridin-3-yl)-1,3-dihydro-imidazo[4,5-c]quinolin-2-one] | 25 nM | 36 nM | 41 nM | 56 nM |
| COCc1cc(-c2ccc3ncc4c(c3c2)n(-c2ccc(C(F)(F)F)nc2C)c(=O)n4C)cnc1N [Example 33.3, 8-(6-Amino-5-methoxymethyl-pyridin-3-yl)-3-methyl-1-(2-methyl-6-trifluoromethyl-pyridin-3-yl)-1,3-dihydro-imidazo[4,5-c]quinolin-2-one] | 7 nM | 60 nM | 12 nM | 22 nM |
| CCNc1ncc(-c2ccc3ncc4c(c3c2)n(-c2ccc(N3CC[C@H](O)C3)nc2C)c(=O)n4C)c(OC)n1 [Example 32.9, 8-(2-Ethylamino-4-methoxy-pyrimidin-5-yl)-1-[6-((S)-3-hydroxy-pyrrolidin-1-yl)-2-methyl-pyridin-3-yl]-3-methyl-1,3-dihydro-imidazo[4,5-c]quinolin-2-one] | 21 nM | 21 nM | 27 nM | 385 nM |
| CNc1ncc(-c2ccc3ncc4c(c3c2)n(-c2ccc(C(C)(C)O)nc2C)c(=O)n4C)cn1 [Example 31.2, 1-[6-(1-Hydroxy-1-methyl-ethyl)-2-methyl-pyridin-3-yl]-3-methyl-8-(2-methylamino-pyrimidin-5-yl)-1,3-dihydro-imidazo[4,5-c]quinolin-2-one] | 11 nM | 6 nM | 26 nM | 105 nM |
| Cc1nc(N2CC(F)(F)C(F)(F)C2)ccc1-n1c(=O)n(C)c2cnc3ccc(-c4cnc(N)c(CO)c4)cc3c21 [Example 35.4, 8-(6-Amino-5-hydroxymethyl-pyridin-3-yl)-3-methyl-1-[2-methyl-6-(3,3,4,4-tetrafluoro-pyrrolidin-1-yl)-pyridin-3-yl]-1,3-dihydro-imidazo[4,5-c]quinolin-2-one] | 21 nM | 66 nM | 39 nM | 207 nM |
| CCNc1ncc(-c2ccc3ncc4c(c3c2)n(-c2ccc(F)nc2C)c(=O)n4C)cn1 [Example 7.18, 8-(2-Ethylamino-pyrimidin-5-yl)-1-(6-fluoro-2-methyl-pyridin-3-yl)-3-methyl-1,3-dihydro-imidazo[4,5-c]quinolin-2-one] | 28 nM | 36 nM | 65 nM | 321 nM |
